Assay results taken from patent publication US7863449B2, “Modulators of muscarinic receptors” (Vertex Pharmaceuticals Incorporated, priority 2004, dated 2011).

Key:
M1 muscarinic receptor = biological target: T1, M1 muscarinic receptor (Homo sapiens, UniProt P11229); assay: Functional mobilization of intracellular calcium (FLIPR), M1-CHO cells; format: cell-based; details: for Emax: 100% efficacy is the maximum response obtained using Carbachol as a control; for M1 Activity: M1-CHO cells, FLIPR calcium mobilization
T1 construct: expressed in transfected cells; host or cells: CHO (M1-CHO)
T1 sequence (P11229 1-460): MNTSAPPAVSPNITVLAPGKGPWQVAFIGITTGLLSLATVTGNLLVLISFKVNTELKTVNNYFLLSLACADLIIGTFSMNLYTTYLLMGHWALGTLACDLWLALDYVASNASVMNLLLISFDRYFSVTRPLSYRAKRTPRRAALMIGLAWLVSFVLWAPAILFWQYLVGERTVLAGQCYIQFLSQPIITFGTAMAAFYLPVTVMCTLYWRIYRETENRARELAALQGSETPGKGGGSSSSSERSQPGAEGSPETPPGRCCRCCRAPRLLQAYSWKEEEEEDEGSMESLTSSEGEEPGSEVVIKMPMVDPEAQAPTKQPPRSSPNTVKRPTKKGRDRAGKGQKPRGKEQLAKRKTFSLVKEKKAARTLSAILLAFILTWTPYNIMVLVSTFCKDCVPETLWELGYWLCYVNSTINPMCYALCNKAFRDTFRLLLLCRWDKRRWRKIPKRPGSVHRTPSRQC
Procedure: (§1) Functional Mobilization of Intracellular Calcium to Determine Muscarinic Receptor Activity:
(§2) CHO cells expressing muscarinic receptors (M1 to M5) are grown as monolayers in tissue culture flasks at 37° C. in a humidified atmosphere containing 5% CO2 and passaged every 3-5 days. The growth media is Dulbecco's modified eagles medium (DMEM, Gibco Cat# 12430-054), containing 25 mM Hepes and supplemented with Fetal Bovine Serum (Hyclone, cat# SH30071.03), 0.1 mM of MEM non-essential amino acids (GIBCO, Cat# 11140-050), 1 mM MEM Sodium Pyruvate (GIBCO Cat# 11360-070) and 100 units/ml of Penicillin G and 100 μg/ml of Streptomycin (GIBCO Cat# 15140-122). The recombinant muscarinic receptor cell lines are grown under antibiotic pressure with media containing 25 μg/ml zeocin and 500 μg/ml G418 (M1-CHO), 4 μg/ml puromycin, 50 μg/ml zeocin and 2.5 μg/ml blasticidin (M2 and M4-CHO) or 50 μg/ml zeocin and 4 μg/ml puromycin (M3 and M5-CHO).
(§3) Cells are harvested at 80-90% confluence using Versene (GIBCO Cat# 15040-066), collected by centrifugation and seeded 18-24 hrs prior to running the calcium assay at a density of 5,000-10,000 cells/well in […], clear-bottomed 384-well plates (BD Biocoat, poly-D-lysine, Cat#356663). The day of the experiment, the cells are washed with a plate washer (Bioteck Instruments, ELX 405) using bath1 buffer (140-mM NaCl, 4.5-mM KCl, 2-mM CaCl2, 1-mM MgCl2, 10-mM Hepes-Na, 10-mM Glucose, pH 7.4, with NaOH) containing 1 mM Probenecid. Next, the calcium dye Fluo-3 (25 μl/well of Fluo-3 AM at 4 μM, Molecular Probes F-1241, in Bath 1 buffer containing 1 mM Probenecid) is added to the 25 μl of Bath 1 remaining in each well after the plate wash and the dye is loaded at 37° C. in the tissue culture incubator for 60-90 min. The fluorescent dye is removed using the plate washer with Bath 1 containing 1 mM Probenecid, leaving 25 μl/well of this solution after the wash. Alternatively, cells can be loaded with the calcium indicator from Molecular Devices (Calcium 3 Assay Reagents, Cat # R7181) adding 5 μl of a 5× solution dye in Bath 1 containing 1 mM Probenecid (10 ml per dye flask cat# R7182 to generate a solution 20×) to 20 μl of the same buffer. After loading for 60 min, the experiment can be run without having to remove the dye.
(§4) Compounds are prepared at a 2× fold concentration in a 96-well plate (round bottom, Costar Corning cat# 3656), by reconstituting the pre-spotted compounds in bath 1 containing 1 mM probenecid. The final concentration DMSO is 0.5%, and the amount of DMSO is normalized across the assay plate. To determine an agonist action of the compounds on muscarinic receptors, the reconstituted compounds are added (25 μl compound/well) to the cell assay plate (containing 25 μl/well) using the multi-channel robotic system of the FLIPR 3 Instrument (Molecular Devices, Sunnyvale, Calif.). To determine a functional inhibitory action of the compounds on muscarinic receptors, the reconstituted compounds are added (25 μl compound/well) to the assay plate and pre-incubated for 15 min prior to adding 25 μl of Carbachol at 3× the EC80 for each muscarinic subtype. Alternatively, the compounds can be co-applied simultaneously with the agonist. In both assay modes, the fluorescence is recorded for 60 sec (excitation wavelength is […] and emission wavelength 540 nm) using the FLIPR 3 instrument.
(§5) The potency, efficacy and selectivity of the muscarinic compounds were evaluated by screening the compound activity across the whole family (M1 to M5 cells). Compounds were also screened for activity on other proteins such as other GPCRs and ion channels to determine selectivity on M4 receptors.

M4 muscarinic receptor = biological target: T2, M4 muscarinic receptor (Homo sapiens, UniProt P08173); assay: Functional mobilization of intracellular calcium (FLIPR), M4-CHO cells; format: cell-based; details: for Emax: 100% efficacy is the maximum response obtained using Carbachol as a control; for M4 Activity: M4-CHO cells, FLIPR calcium mobilization
T2 construct: expressed in transfected cells; host or cells: CHO (M4-CHO)
T2 sequence (P08173 1-479): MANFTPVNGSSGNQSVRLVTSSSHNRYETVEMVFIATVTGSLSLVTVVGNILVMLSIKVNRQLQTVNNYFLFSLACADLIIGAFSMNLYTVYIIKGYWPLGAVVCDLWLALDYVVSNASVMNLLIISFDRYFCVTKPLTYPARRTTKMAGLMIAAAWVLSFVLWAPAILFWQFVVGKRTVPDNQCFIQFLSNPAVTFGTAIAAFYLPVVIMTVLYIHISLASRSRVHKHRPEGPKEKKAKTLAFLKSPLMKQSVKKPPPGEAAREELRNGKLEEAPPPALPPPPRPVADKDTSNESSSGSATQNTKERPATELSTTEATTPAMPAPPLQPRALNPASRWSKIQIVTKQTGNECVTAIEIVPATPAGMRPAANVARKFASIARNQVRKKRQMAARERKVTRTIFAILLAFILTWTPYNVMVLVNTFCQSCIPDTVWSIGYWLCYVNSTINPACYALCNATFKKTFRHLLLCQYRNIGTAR
Procedure: as §1, §2, §3, §4, §5

| Compound | Emax (M1 muscarinic receptor) [%] | M1 Activity (M1 muscarinic receptor) | Emax (M4 muscarinic receptor) [%] | M4 Activity (M4 muscarinic receptor) |
| --- | --- | --- | --- | --- |
| CCOC(=O)N1CC(CN2CCC3(CC2)CN(C(C)=O)Cc2ccccc23)C1 [compound 1] | 25 to 100 | ++ (activity was measured to be from 1.0 μM to 5.0 μM) | < 25 | ++ (activity was measured to be from 1.0 μM to 5.0 μM) |
| CC(=O)N1Cc2ccccc2C2(CCN(CC3CCC(C)=CC3C)CC2)C1 (centres unmarked) [compound 2] | < 25 | – | < 25 | – |
| CN(C)S(=O)(=O)N1Cc2ccccc2C2(CCN(C3CC4CCC(C3)N4C(=O)O[C@@H]3CCOC3)CC2)C1 (some centres unmarked) [compound 3] | 25 to 100 | +++ (activity was measured to be less than 1.0 μM) | 25 to 100 | +++ (activity was measured to be less than 1.0 μM) |
| CC(=O)N1Cc2ccccc2C2(CCN(C3(C)CCCCC3)CC2)C1 [compound 4, 1-(1′-(1-methylcyclohexyl)-1H-spiro[isoquinoline-4,4′-piperidine]-2(3H)-yl)ethanone] | 25 to 100 | ++ (activity was measured to be from 1.0 μM to 5.0 μM) | 25 to 100 | +++ (activity was measured to be less than 1.0 μM) |
| CC(=O)N1Cc2ccccc2C2(CCN(Cc3ccncc3)CC2)C1 [compound 5] | < 25 | + (activity was measured to be greater than 5.0 μM) | < 25 | + (activity was measured to be greater than 5.0 μM) |
| CCOC(=O)N1CCC(N2CCC3(CC2)CN(C(=O)CC)Cc2ccccc23)CC1 [compound 6] | 25 to 100 | +++ (activity was measured to be less than 1.0 μM) | 25 to 100 | +++ (activity was measured to be less than 1.0 μM) |
| CCCOC(=O)N1C2CCC1CC(N1CCC3(CC1)CN(C(=O)N(C)C)Cc1ccccc13)C2 (centres unmarked) [compound 7] | 25 to 100 | +++ (activity was measured to be less than 1.0 μM) | 25 to 100 | +++ (activity was measured to be less than 1.0 μM) |
| CCOC(=O)N1C2CCC1CC(N1CCC3(CC1)CN(C(=O)OC(C)C)Cc1ccccc13)C2 (centres unmarked) [compound 8] | 25 to 100 | +++ (activity was measured to be less than 1.0 μM) | 25 to 100 | +++ (activity was measured to be less than 1.0 μM) |
| CCOC(=O)N1CCC(N2CCC3(CC2)CN(CC#Cc2ccccc2)Cc2ccccc23)CC1 [compound 9] | 25 to 100 | +++ (activity was measured to be less than 1.0 μM) | 25 to 100 | +++ (activity was measured to be less than 1.0 μM) |
| CCOC(=O)N1CCC(N2CCC3(CC2)CN(C(=O)C2CCCC2)Cc2ccccc23)CC1 [compound 10] | 25 to 100 | +++ (activity was measured to be less than 1.0 μM) | < 25 | ++ (activity was measured to be from 1.0 μM to 5.0 μM) |
| CCOC(=O)N1CCC(CN2CCC3(CC2)CN(C(=O)OCC)Cc2ccccc23)CC1 [compound 11] | 25 to 100 | +++ (activity was measured to be less than 1.0 μM) | 25 to 100 | +++ (activity was measured to be less than 1.0 μM) |
| CCOC(=O)N1C2CCC1CC(N1CCC3(CC1)CN(c1ccc(C)c(C)c1)Cc1ccccc13)C2 (centres unmarked) [compound 12] | 25 to 100 | +++ (activity was measured to be less than 1.0 μM) | 25 to 100 | +++ (activity was measured to be less than 1.0 μM) |
| CC(=O)N1Cc2ccccc2C2(CCN(C3CC4CCC(C3)N4C(=O)O[C@@H]3CCOC3)CC2)C1 (some centres unmarked) [compound 13] | 25 to 100 | +++ (activity was measured to be less than 1.0 μM) | 25 to 100 | +++ (activity was measured to be less than 1.0 μM) |
| CCOC(=O)N1C2CCC1CC(N1CCC3(CC1)CN(C(=O)OC1CCCC1)Cc1ccccc13)C2 (centres unmarked) [compound 14] | 25 to 100 | +++ (activity was measured to be less than 1.0 μM) | 25 to 100 | +++ (activity was measured to be less than 1.0 μM) |
| CCOC(=O)N1C2CCC1CC(N1CCC3(CC1)CN(C(=O)c1cc(C)nn1C(C)(C)C)Cc1ccccc13)C2 (centres unmarked) [compound 15] | 25 to 100 | +++ (activity was measured to be less than 1.0 μM) | 25 to 100 | +++ (activity was measured to be less than 1.0 μM) |
| CCOC(=O)N1CCC(N2CCC3(CC2)CN(C(=O)Nc2ccccc2)Cc2ccccc23)CC1 [compound 16] | 25 to 100 | +++ (activity was measured to be less than 1.0 μM) | 25 to 100 | +++ (activity was measured to be less than 1.0 μM) |
| CCOC(=O)N1C2CCC1CC(N1CCC3(CC1)CN(C(=O)c1cccnc1)Cc1ccccc13)C2 (centres unmarked) [compound 17] | 25 to 100 | +++ (activity was measured to be less than 1.0 μM) | 25 to 100 | +++ (activity was measured to be less than 1.0 μM) |
| CCOC(=O)N1C2CCC1CC(N1CCC3(CC1)CN(S(=O)(=O)c1ccc(C)cc1)Cc1ccccc13)C2 (centres unmarked) [compound 18] | 25 to 100 | +++ (activity was measured to be less than 1.0 μM) | 25 to 100 | +++ (activity was measured to be less than 1.0 μM) |
| O=C1OC2(CCN(C[C@H]3C[C@H]4C=C[C@H]3C4)CC2)c2ccc(Cl)cc21 [compound 19] | 25 to 100 | ++ (activity was measured to be from 1.0 μM to 5.0 μM) | < 25 | ++ (activity was measured to be from 1.0 μM to 5.0 μM) |
